According to patent publication US11629154B2, “Tetrahydropyranooxazine derivatives having selective BACE1 inhibitory activity” (SHIONOGI & CO., LTD., priority 2018, dated 2023):

Tested on: not listed separately
Assay: Metabolic stability test
Format: in vitro ADME
Settings: human liver microsomes, 37° C., NADPH
Experimental: Using a commercially available pooled human liver microsomes, a compound of the present invention was reacted for a constant time, a remaining rate was calculated by comparing a reacted sample and an unreacted sample, thereby, a degree of metabolism in liver was assessed.
A reaction was performed (oxidative reaction) at 37° C. for 0 minute or 30 minutes in the presence of 1 mmol/L NADPH in 0.2 mL of a buffer (50 mmol/L Tris-HCl pH 7.4, 150 mmol/L potassium chloride, 10 mmol/L magnesium chloride) containing 0.5 mg protein/mL of human liver microsomes. After the reaction, 50 μL of the reaction solution was added to 100 μL of a methanol/acetonitrile=1/1 (v/v), mixed and centrifuged at 3000 rpm for 15 minutes. The compound of the present invention in the supernatant was quantified by LC/MS/MS or solid phase extraction (SPE)MS, and a remaining amount of the compound of the present invention after the reaction was calculated, letting a compound amount at 0 minute reaction time to be 100%.

Remaining rate(%) at 30 min [%]	SMILES
87.9	NC1=N[C@](CF)(c2cc(NC(=O)c3ccc(C(F)(F)F)cn3)ccc2F)[C@H]2COCC[C@H]2O1 [Compound I-105]
91.4	COc1cnc(C(=O)Nc2ccc(F)c([C@@]3(CF)N=C(N)O[C@@H]4CCOC[C@@H]43)c2)cn1 [Compound I-067]
91.7	NC1=N[C@](CF)(c2cc(NC(=O)c3cnc(OC(F)F)cn3)ccc2F)[C@H]2COCC[C@H]2O1 [Compound I-076]
61.6	NC1=N[C@](CF)(c2cc(NC(=O)c3cnc(-n4cncn4)cn3)ccc2F)[C@H]2COCC[C@H]2O1 [Compound I-047]
79.6	C[C@@H]1C[C@H]2OC(N)=N[C@](CF)(c3cc(NC(=O)c4cnc(OCF)cn4)ccc3Cl)[C@H]2CO1 [Compound I-065]

SMILES	Remaining rate(%) at 30 min [%]
C[C@@H]1C[C@H]2OC(N)=N[C@](CF)(c3cc(NC(=O)c4cnc(OCF)cn4)ccc3F)[C@H]2CO1 [Compound I-008]	94.4
NC1=N[C@](CF)(c2cc(NC(=O)c3cnc(OCF)cn3)ccc2F)[C@H]2COCC[C@H]2O1 [Compound I-007]	107

Biological target: recombinant BACE2 protein (Homo sapiens (Human), UniProt Q9Y5Z0)
Assay: BACE2 biochemical FRET based assay
Settings: pH 5.0
From the text: (2) BACE2 Biochemical FRET Based Assay
(§1) This assay is a Fluorescence Resonance Energy Transfer Assay (FRET) based assay. The substrate for this assay contains the ‘Swedish’ Lys-Met/Asn-Leu mutation of the amyloid precursor protein (APP) beta-secretase cleavage site. This substrate also contains two fluorophores: (7-methoxycoumarin-4-yl) acetic acid (Mca) is a fluorescent donor with excitation wavelength at 320 nm and emission at 405 nm and 2,4-dinitrophenol (Dnp) is a proprietary quencher acceptor. […] Upon cleavage by the beta-secretase, the fluorophore Mca is separated from the quenching group Dnp, restoring the full fluorescence yield of the donor. The increase in fluorescence is linearly related to the rate of proteolysis.
Briefly in a 384-well format recombinant BACE2 protein in a final concentration of 0.4 μg/mL was incubated for 450 minutes at room temperature with 10 μM substrate in incubation buffer (final concentrations: 33.3 mM Citrate buffer pH 5.0, 0.033% PEG, 2% DMSO) in the absence or presence of compound. Next the amount of proteolysis was directly measured by fluorescence measurement at T=0 and T=450 (excitation at 320 nm and emission at 405 nm). Results were expressed in RFU (Relative Fluorescence Units), as difference between T450 and TO.
(§2) A best-fit curve was fitted by a minimum sum of squares method to the plot of % Controlmin versus compound concentration. From this an IC50 value (inhibitory concentration causing 50% inhibition of activity) can be obtained.
(§3) LC=Median of the low control values
(§4) =Low control: Reaction without enzyme
(§5) HC=Median of the High control values

Sequence of recombinant BACE2 protein (Q9Y5Z0 63-518): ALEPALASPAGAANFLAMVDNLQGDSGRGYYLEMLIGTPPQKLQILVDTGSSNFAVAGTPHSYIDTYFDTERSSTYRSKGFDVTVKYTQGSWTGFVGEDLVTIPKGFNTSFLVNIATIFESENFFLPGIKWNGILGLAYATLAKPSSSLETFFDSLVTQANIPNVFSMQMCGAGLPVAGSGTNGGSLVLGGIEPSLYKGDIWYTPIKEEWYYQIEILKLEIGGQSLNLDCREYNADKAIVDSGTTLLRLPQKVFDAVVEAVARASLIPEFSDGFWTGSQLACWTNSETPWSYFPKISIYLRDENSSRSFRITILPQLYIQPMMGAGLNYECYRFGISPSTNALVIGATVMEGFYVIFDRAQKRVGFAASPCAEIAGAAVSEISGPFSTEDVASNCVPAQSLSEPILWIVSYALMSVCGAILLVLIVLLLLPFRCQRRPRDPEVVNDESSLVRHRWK

IC50 [nM]	SMILES
302	NC1=N[C@](CF)(c2cc(NC(=O)c3ccc(C(F)(F)F)cn3)ccc2F)[C@H]2COCC[C@H]2O1 [Compound I-105]
269	COc1cnc(C(=O)Nc2ccc(F)c([C@@]3(CF)N=C(N)O[C@@H]4CCOC[C@@H]43)c2)cn1 [Compound I-067]
178	NC1=N[C@](CF)(c2cc(NC(=O)c3cnc(OC(F)F)cn3)ccc2F)[C@H]2COCC[C@H]2O1 [Compound I-076]
1180	NC1=N[C@](CF)(c2cc(NC(=O)c3cnc(-n4cncn4)cn3)ccc2F)[C@H]2COCC[C@H]2O1 [Compound I-047]
339	C[C@@H]1C[C@H]2OC(N)=N[C@](CF)(c3cc(NC(=O)c4cnc(OCF)cn4)ccc3Cl)[C@H]2CO1 [Compound I-065]

SMILES	IC50 [nM]
C[C@@H]1C[C@H]2OC(N)=N[C@](CF)(c3cc(NC(=O)c4cnc(OCF)cn4)ccc3F)[C@H]2CO1 [Compound I-008]	646
NC1=N[C@](CF)(c2cc(NC(=O)c3cnc(OCF)cn3)ccc2F)[C@H]2COCC[C@H]2O1 [Compound I-007]	302

Biological target: human ether-a-go-go related gene (hERG) channel (Homo sapiens (Human), UniProt Q12809)
Assay: hERG test
Format: cell-based
Settings: CHO cells expressing hERG
From the text: For the purpose of assessing risk of an electrocardiogram QT interval prolongation, effects on delayed rectifier K+ current (IKr), which plays an important role in the ventricular repolarization process of the compound of the present invention, was studied using CHO cells expressing human ether-a-go-go related gene (hERG) channel.
A cell was retained at a membrane potential of −80 mV by whole cell patch clamp method using an automated patch clamp system (QPatch; Sophion Bioscience A/S). After application of leak potential at −50 mV, IKr induced by depolarization pulse stimulation at +20 mV for 2 seconds and, further, repolarization pulse stimulation at −50 mV for 2 seconds was recorded.
Further, the % inhibition relative to the tail peak current before application of the compound of the present invention was calculated, and compared with the vehicle-applied group (0.1% dimethyl sulfoxide solution) to assess influence of the compound of the present invention on IKr.

Sequence of human ether-a-go-go related gene (hERG) channel (Q12809 whole entry): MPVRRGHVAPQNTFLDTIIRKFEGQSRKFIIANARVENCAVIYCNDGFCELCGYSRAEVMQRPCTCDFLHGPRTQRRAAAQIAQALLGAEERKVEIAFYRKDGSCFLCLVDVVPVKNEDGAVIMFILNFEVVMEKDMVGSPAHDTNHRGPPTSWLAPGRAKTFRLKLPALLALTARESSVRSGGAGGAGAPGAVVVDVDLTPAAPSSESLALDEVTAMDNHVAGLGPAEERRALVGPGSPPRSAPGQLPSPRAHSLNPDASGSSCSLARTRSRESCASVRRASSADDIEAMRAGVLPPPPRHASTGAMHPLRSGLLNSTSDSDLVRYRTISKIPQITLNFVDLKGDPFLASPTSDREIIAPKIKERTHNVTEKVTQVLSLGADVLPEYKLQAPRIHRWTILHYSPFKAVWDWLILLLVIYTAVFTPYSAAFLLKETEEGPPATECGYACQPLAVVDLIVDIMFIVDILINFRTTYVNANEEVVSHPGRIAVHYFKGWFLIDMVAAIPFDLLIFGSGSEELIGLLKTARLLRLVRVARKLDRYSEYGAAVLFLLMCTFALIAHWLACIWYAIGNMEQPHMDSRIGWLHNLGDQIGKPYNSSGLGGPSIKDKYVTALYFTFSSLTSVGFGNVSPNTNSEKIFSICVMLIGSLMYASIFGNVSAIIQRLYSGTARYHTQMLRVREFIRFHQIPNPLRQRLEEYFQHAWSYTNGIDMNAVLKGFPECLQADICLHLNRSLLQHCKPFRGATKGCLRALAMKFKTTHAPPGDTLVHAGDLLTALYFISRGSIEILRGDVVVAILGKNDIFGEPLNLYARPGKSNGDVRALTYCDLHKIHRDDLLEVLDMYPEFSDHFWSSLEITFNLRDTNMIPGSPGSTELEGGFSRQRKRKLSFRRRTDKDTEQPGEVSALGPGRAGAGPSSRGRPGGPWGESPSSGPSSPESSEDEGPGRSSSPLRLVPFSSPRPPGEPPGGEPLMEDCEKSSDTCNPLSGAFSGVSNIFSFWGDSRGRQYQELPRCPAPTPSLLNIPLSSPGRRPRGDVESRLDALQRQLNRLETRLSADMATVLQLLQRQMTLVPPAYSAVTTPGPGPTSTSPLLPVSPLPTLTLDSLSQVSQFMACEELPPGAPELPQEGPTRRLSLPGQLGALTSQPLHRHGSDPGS

SMILES	hERG inhibition (%) at 3 μM [%]
C[C@@H]1C[C@H]2OC(N)=N[C@](CF)(c3cc(NC(=O)c4cnc(OCF)cn4)ccc3F)[C@H]2CO1 [Compound I-008]	18.5
NC1=N[C@](CF)(c2cc(NC(=O)c3ccc(C(F)(F)F)cn3)ccc2F)[C@H]2COCC[C@H]2O1 [Compound I-105]	40.8
COc1cnc(C(=O)Nc2ccc(F)c([C@@]3(CF)N=C(N)O[C@@H]4CCOC[C@@H]43)c2)cn1 [Compound I-067]	5.39
NC1=N[C@](CF)(c2cc(NC(=O)c3cnc(OCF)cn3)ccc2F)[C@H]2COCC[C@H]2O1 [Compound I-007]	6.83
NC1=N[C@](CF)(c2cc(NC(=O)c3cnc(OC(F)F)cn3)ccc2F)[C@H]2COCC[C@H]2O1 [Compound I-076]	18.5
NC1=N[C@](CF)(c2cc(NC(=O)c3cnc(-n4cncn4)cn3)ccc2F)[C@H]2COCC[C@H]2O1 [Compound I-047]	11.6
C[C@@H]1C[C@H]2OC(N)=N[C@](CF)(c3cc(NC(=O)c4cnc(OCF)cn4)ccc3Cl)[C@H]2CO1 [Compound I-065]	37.8

Biological target: recombinant BACE1 protein (Homo sapiens (Human), UniProt P56817)
Assay: BACE1 biochemical FRET based assay
Settings: BACE1 versus BACE2
From the text: (1) BACE1 Biochemical FRET Based Assay
as §1, with “this assay is an APP derived 13 amino acids peptide that contains the” for “this assay contains the”, “protein (APP) beta-site secretase cleavage site.” for “protein (APP) beta-secretase cleavage site.”, “cleavage by BACE1, the fluorophore” for “cleavage by the beta-secretase, the fluorophore”
Briefly in a 384-well format recombinant BACE1 protein in a final concentration of 0.04 μg/mL was incubated for 450 minutes at room temperature with […] substrate in incubation buffer (final concentrations: 33.3 mM Citrate buffer pH 5.0, 0.033% PEG, 3% DMSO) in the absence or presence of compound. Next the amount of proteolysis was directly measured by fluorescence measurement at T=0′-120′ and T=450′ (excitation at 320 nm and emission at 405 nm). Results were expressed in RFU (Relative Fluorescence Units), as difference between T450 and Tx (Tx is chosen depending on the reaction speed between 0 and 120 minutes).
as §2, §3, §4, §5
=High Control: Reaction with enzyme % Effect=100−[(sample−LC)/(HC−LC)*100] % Control=(sample/HC)*100 % Controlmin=(sample−LC)/(HC−LC)*100

Sequence of recombinant BACE1 protein (P56817 46-501): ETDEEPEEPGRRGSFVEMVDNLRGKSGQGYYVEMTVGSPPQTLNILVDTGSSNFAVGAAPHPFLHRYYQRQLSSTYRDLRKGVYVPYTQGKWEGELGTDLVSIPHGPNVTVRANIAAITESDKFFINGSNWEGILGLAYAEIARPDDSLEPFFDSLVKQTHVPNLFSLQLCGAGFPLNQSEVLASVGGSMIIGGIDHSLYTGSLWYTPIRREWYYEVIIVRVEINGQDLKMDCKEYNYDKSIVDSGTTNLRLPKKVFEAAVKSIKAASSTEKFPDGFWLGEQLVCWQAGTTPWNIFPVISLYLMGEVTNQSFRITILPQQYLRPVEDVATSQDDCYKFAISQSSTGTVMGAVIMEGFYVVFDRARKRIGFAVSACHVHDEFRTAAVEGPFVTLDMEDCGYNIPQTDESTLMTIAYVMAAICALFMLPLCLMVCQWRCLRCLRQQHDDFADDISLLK

Selectivity	SMILES
17.8	NC1=N[C@](CF)(c2cc(NC(=O)c3ccc(C(F)(F)F)cn3)ccc2F)[C@H]2COCC[C@H]2O1 [Compound I-105]
30.2	COc1cnc(C(=O)Nc2ccc(F)c([C@@]3(CF)N=C(N)O[C@@H]4CCOC[C@@H]43)c2)cn1 [Compound I-067]
63.1	NC1=N[C@](CF)(c2cc(NC(=O)c3cnc(OC(F)F)cn3)ccc2F)[C@H]2COCC[C@H]2O1 [Compound I-076]
69.2	NC1=N[C@](CF)(c2cc(NC(=O)c3cnc(-n4cncn4)cn3)ccc2F)[C@H]2COCC[C@H]2O1 [Compound I-047]
35.5	C[C@@H]1C[C@H]2OC(N)=N[C@](CF)(c3cc(NC(=O)c4cnc(OCF)cn4)ccc3Cl)[C@H]2CO1 [Compound I-065]

SMILES	Selectivity
C[C@@H]1C[C@H]2OC(N)=N[C@](CF)(c3cc(NC(=O)c4cnc(OCF)cn4)ccc3F)[C@H]2CO1 [Compound I-008]	43.7
NC1=N[C@](CF)(c2cc(NC(=O)c3cnc(OCF)cn3)ccc2F)[C@H]2COCC[C@H]2O1 [Compound I-007]	40.7

Same assay, conditions: FRET, pH 5.0

IC50 [nM]	SMILES
17	NC1=N[C@](CF)(c2cc(NC(=O)c3ccc(C(F)(F)F)cn3)ccc2F)[C@H]2COCC[C@H]2O1 [Compound I-105]
8.9	COc1cnc(C(=O)Nc2ccc(F)c([C@@]3(CF)N=C(N)O[C@@H]4CCOC[C@@H]43)c2)cn1 [Compound I-067]
2.8	NC1=N[C@](CF)(c2cc(NC(=O)c3cnc(OC(F)F)cn3)ccc2F)[C@H]2COCC[C@H]2O1 [Compound I-076]
17	NC1=N[C@](CF)(c2cc(NC(=O)c3cnc(-n4cncn4)cn3)ccc2F)[C@H]2COCC[C@H]2O1 [Compound I-047]
9.5	C[C@@H]1C[C@H]2OC(N)=N[C@](CF)(c3cc(NC(=O)c4cnc(OCF)cn4)ccc3Cl)[C@H]2CO1 [Compound I-065]

SMILES	IC50 [nM]
C[C@@H]1C[C@H]2OC(N)=N[C@](CF)(c3cc(NC(=O)c4cnc(OCF)cn4)ccc3F)[C@H]2CO1 [Compound I-008]	14.8
NC1=N[C@](CF)(c2cc(NC(=O)c3cnc(OCF)cn3)ccc2F)[C@H]2COCC[C@H]2O1 [Compound I-007]	7.4
